Reference: article PMC7615677 (Science translational medicine, 2023)
Where two headings read alike, the source gives them in different places.

Key:
[1] = In vivo pharmacokinetics; set-up: species or system male beagle dogs
Experimental: Additional PK studies were also conducted by WuXi AppTec Co, Ltd (Shanghai, China) according to protocols reviewed and approved by DNDi. […] IV and oral formulations for rats, mice and hamsters were the same as described above. For dogs, the IV dose was administered in saline containing 2% DMSO and 3% Solutol HS-15 and the oral formulation was as described above. Blood was sampled up to 48 h post-dose into vials containing potassium EDTA as an anticoagulant, proteins were precipitated with acetonitrile and plasma was separated and assayed by LC-MS.
Single dose pharmacokinetic parameters (clearance, volume of distribution and half-life) were initially estimated using non-compartmental methods and oral bioavailability was calculated using the ratio of the dose corrected AUC after oral dosing relative to that after IV administration. Nominal doses were used in the calculations unless the measured dose differed by more than 15% from the nominal dose, in which case the measured dose was used. Where a full concentration versus time profile was obtained from a single animal, parameters were estimated for each animal and mean and standard deviations calculated. In the case of mice where sparse sampling was used with multiple animals per time point, the data analysis was conducted using the mean profile.

[2] = In vitro cytotoxicity assay; type: cell-based; conditions: human, MRC-5 human fetal lung fibroblasts
[3] = target: T1, alpha1A Human Adrenoceptor GPCR (Homo sapiens, UniProt P35348); assay: α1A antagonism IC50 determination; type: cell-based
T1 construct: Eurofins (contract assay)
Text: Listed values represent the percent change relative to the DMSO control activity. When an IC50 had to be determined, eight different concentrations were included. All values are the mean of assay readout duplicates.

[4] = target: NaV1.5 (Homo sapiens, UniProt Q14524); assay: Qube NaV1.5
[5] = target: T2, human cytochrome bc1 complex (Homo sapiens, UniProt P00156); assay: Human complex III inhibition assay; type: biochemical
T2 construct: Preparation of mitochondria from a human cell line (THP-1); endogenous in cells; host or cells: THP-1 (human) mitochondria
Experimental: Preparation of mitochondria from a human cell line (THP-1) was performed following published procedure ([21]). The protocol for the assay has been described in ([22]).

[6] = target: T3, CYP1A2 (Homo sapiens, UniProt P05177); assay: Cytochrome P450 inhibition, human liver microsomes; type: in vitro ADME
T3 construct: incubation of isoform-specific substrates with human liver microsomes; from tissue; host or cells: human liver microsomes
T3 sequence (P05177 1-516): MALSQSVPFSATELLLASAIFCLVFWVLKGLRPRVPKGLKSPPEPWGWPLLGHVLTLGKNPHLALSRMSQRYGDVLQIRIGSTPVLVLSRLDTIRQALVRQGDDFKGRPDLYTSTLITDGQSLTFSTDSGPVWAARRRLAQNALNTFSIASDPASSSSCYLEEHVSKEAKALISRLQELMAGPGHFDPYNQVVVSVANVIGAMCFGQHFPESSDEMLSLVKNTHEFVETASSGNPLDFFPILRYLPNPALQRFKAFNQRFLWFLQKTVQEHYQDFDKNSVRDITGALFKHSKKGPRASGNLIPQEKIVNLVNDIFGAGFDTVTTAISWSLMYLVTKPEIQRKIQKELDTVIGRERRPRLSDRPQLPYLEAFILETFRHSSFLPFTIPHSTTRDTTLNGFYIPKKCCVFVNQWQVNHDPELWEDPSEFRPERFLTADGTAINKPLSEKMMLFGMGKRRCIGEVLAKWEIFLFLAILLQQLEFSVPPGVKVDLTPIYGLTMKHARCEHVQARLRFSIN
Experimental: (§1) Direct CYP inhibition studies were conducted using conditions described previously ([43]) following incubation of isoform-specific substrates with human liver microsomes. The formation of known metabolites mediated by a specific CYP isoform was monitored. CYP isoform-specific pathways (and positive control inhibitors) included CYP1A2: phenacetin O-deethylation (furafylline), CYP2B6: bupropion hydroxylation (PPP), CYP2C8: amodiaquine deethylation (quercetin) CYP2C9: tolbutamide methylhydroxylation (sulfaphenazole), CYP2C19: (S)-mephenytoin 4’-hydroxylation (ticlopidine), CYP2D6: dextromethorphan O-demethylation (quinidine), and CYP3A: midazolam 1’-hydroxylation and testosterone 6β-hydroxylation (ketoconazole). […] The organic solvent content was maintained at less than 1% (v/v). NADPH was added to initiate the reaction which was then quenched by the addition of acetonitrile containing internal standard at specified times. Concentrations of the isoform-specific metabolites were quantified by LC-MS (Waters Xevo TQD triple quadrupole MS coupled to a Waters Acquity UPLC system) relative to calibration standards prepared in pre-quenched microsomal matrix.
(§2) Time dependent inhibition was assessed using an “IC50 shift” method based on a previous publication ([44]). […] A shift in the IC50 in the presence of NADPH (relative to the absence) was used as an indication of time dependent inhibition. Reference direct and time-dependent inhibitors were included in the assays.

[7] = target: T4, CYP2B6 (Homo sapiens, UniProt P20813); assay: Cytochrome P450 inhibition, human liver microsomes; type: in vitro ADME
T4 construct: incubation of isoform-specific substrates with human liver microsomes; from tissue; host or cells: human liver microsomes
T4 sequence (P20813 1-491): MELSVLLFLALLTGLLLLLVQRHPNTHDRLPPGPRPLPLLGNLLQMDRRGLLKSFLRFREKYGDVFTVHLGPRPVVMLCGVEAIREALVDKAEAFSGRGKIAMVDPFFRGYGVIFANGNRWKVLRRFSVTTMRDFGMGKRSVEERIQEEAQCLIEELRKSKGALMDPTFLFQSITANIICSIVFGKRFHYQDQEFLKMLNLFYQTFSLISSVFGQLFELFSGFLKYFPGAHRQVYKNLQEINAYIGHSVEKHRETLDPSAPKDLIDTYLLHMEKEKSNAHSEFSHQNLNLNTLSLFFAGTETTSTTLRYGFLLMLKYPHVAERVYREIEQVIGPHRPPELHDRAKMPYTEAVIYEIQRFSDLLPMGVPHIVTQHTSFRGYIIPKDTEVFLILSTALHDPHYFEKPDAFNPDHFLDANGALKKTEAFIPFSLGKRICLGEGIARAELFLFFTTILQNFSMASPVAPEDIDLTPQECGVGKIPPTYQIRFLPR
Experimental: as §1, §2

[8] = dogs, single oral 90 mg/kg, two individual dogs, 90 mg/kg
[9] = male, beagle, dog, plasma, dogs, single oral 30 mg/kg
[10] = male, beagle, dog, plasma, dogs, single oral 90 mg/kg
[11] = male, beagle, plasma, Dog, oral 5.0 mg/kg
[12] = with NADPH preincubation, read-out: Time-dependent inhibition IC50
[13] = without NADPH preincubation, read-out: Time-dependent inhibition IC50

NaV1.5, sequence (Q14524 whole entry): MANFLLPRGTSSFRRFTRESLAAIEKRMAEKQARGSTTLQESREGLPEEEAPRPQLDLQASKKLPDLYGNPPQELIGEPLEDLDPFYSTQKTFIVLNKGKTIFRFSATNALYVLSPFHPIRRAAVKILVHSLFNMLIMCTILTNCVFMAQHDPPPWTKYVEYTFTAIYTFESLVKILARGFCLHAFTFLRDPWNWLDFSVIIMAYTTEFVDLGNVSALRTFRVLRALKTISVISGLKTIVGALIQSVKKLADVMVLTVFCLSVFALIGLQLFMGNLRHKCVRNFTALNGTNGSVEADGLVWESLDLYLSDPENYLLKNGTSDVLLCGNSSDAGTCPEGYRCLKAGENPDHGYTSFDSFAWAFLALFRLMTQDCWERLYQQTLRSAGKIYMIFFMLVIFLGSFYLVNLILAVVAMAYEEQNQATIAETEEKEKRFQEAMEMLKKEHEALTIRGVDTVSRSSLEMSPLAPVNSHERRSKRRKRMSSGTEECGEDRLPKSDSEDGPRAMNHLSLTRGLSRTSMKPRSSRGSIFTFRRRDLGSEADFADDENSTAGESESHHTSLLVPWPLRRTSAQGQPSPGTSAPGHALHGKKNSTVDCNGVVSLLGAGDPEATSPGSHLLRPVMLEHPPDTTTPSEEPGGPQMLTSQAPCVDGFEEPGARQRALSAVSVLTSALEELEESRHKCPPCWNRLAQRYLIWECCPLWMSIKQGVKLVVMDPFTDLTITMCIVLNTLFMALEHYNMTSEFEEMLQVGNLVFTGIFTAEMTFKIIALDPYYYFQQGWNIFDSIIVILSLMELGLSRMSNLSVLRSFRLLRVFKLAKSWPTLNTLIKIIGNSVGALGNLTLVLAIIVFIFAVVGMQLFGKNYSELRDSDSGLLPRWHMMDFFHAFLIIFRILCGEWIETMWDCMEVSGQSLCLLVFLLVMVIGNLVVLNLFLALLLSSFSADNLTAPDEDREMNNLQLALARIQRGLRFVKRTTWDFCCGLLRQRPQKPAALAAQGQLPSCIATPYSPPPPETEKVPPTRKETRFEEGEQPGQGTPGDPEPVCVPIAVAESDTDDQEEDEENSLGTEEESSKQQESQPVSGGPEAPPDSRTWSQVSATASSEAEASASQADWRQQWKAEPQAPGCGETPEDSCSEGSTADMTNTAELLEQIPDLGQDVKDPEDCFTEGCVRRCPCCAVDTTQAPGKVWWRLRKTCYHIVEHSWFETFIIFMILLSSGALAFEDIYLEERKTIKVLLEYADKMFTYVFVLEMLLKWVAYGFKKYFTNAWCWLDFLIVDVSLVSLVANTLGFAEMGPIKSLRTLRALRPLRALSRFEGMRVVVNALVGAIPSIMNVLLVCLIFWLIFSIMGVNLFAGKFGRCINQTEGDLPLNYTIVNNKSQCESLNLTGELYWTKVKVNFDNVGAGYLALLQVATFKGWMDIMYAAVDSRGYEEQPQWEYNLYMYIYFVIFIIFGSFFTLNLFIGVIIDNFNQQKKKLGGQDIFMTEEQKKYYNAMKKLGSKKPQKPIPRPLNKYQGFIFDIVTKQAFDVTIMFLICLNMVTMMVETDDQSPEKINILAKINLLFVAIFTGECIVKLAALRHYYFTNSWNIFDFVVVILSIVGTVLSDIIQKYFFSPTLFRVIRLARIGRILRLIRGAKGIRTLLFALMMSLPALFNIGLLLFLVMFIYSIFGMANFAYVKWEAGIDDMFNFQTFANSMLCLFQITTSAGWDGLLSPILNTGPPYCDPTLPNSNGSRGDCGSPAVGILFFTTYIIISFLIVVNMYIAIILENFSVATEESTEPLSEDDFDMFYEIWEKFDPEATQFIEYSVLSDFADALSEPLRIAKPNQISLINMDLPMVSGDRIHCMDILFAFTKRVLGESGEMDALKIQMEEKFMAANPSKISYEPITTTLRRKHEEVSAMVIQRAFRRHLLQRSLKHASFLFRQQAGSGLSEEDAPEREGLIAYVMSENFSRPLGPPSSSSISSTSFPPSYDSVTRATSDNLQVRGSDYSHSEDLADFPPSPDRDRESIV
T1 sequence (P35348 whole entry): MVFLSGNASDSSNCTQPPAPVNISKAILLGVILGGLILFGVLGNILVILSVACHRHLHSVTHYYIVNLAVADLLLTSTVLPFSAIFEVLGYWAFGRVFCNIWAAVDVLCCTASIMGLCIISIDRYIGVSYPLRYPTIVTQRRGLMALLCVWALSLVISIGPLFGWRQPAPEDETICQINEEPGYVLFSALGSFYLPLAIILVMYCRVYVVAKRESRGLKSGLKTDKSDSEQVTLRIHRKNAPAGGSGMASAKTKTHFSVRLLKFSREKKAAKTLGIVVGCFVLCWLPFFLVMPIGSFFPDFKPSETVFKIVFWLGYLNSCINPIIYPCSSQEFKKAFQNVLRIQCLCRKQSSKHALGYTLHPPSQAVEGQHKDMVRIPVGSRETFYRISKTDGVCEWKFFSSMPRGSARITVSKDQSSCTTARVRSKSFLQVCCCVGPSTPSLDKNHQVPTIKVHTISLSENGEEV

In the case of `Cc1[nH]c2nc(N)nc(C)c2c1-c1ccc(C#N)c2c1OCO2` [DNDI-6174], the “AUC0-∞” value [1, 8] is reported as 533 µg·h/mL, the T1/2 [1, 8] is reported as 20.9 h and the half-life ([1]; male, beagle, dog, plasma, iv, 1 mg/kg, Dog, intravenous 1.0 mg/kg, read-out: Apparent t1/2 (converted)) is reported as 9.84 h. For the same compound, the AUC(0-inf) ([1]; male, beagle, dog, plasma, iv, 1 mg/kg, Dog, intravenous 1.0 mg/kg, read-out: Plasma AUC0-inf) was 5 µg·h/mL, the clearance ([1]; male, beagle, dog, plasma, iv, 1 mg/kg, Dog, intravenous 1.0 mg/kg, read-out: Plasma CL) was 3.5 mL/min/kg and the clearance ([1]; male, beagle, dog, plasma, iv, 1 mg/kg, Dog, read-out: Measured in vivo CLplasma) was 3.4 mL/min/kg. For the same compound, the half-life ([1]; male, beagle, dog, plasma, po, 5 mg/kg, Dog, oral 5.0 mg/kg, read-out: Apparent t1/2 (converted)) was 6.9 h, the AUC(0-inf) ([1]; male, beagle, dog, plasma, po, 5 mg/kg, Dog, oral 5.0 mg/kg, read-out: Plasma AUC0-∞) was 18.5 µg·h/mL and the AUC(0-inf) ([1]; male, beagle, dog, plasma, po, 30 mg/kg, dogs, single oral 30 mg/kg, read-out: AUC0-∞) was 255 µg·h/mL. For the same compound, the half-life ([1]; male, beagle, dog, plasma, po, 30 mg/kg, dogs, single oral 30 mg/kg, read-out: T1/2 (converted)) was 14.4 h, the AUC(0-inf) ([1]; male, beagle, dog, plasma, po, 90 mg/kg, dogs, single oral 90 mg/kg, two individual dogs, read-out: AUC0-∞) was 613 µg·h/mL and the half-life ([1]; male, beagle, dog, plasma, po, 90 mg/kg, dogs, single oral 90 mg/kg, two individual dogs, read-out: T1/2 (converted)) was 14.2 h. For the same compound, the Cmax [1, 9] was 9590 ng/mL, the Tmax [1, 9] was 3.33 h and the Cmax [1, 10] was 19100 ng/mL. The Tmax [1, 10] was 10.7 h, the Vd ([1]; male, beagle, plasma, Dog, intravenous 1.0 mg/kg, read-out: Plasma Vss) was 2.5 L/kg and the Cmax [1, 11] was 2020 ng/mL. For the same compound, the Tmax [1, 11] was 4 h, the bioavailability [1, 11] was 90% and the CC50 [2] was greater than 64 µM. The IC50 [3] was 12.8 µM, the IC50 [4] was greater than 50 µM and the inhibition at 200 µM [5] was less than 20%. It also gave an IC50 ([6]; CYP1A2, read-out: Direct inhibition IC50) of 5.1 µM, an IC50 [6, 12] of 1 µM and an IC50 [6, 13] of 3.4 µM. For the same compound, the IC50 ([7]; CYP2B6, read-out: Direct inhibition IC50) was greater than 20 µM, the IC50 [7, 12] was greater than 20 µM and the IC50 [7, 13] was greater than 20 µM.
